In ChEMBL document CHEMBL4828719, “H2dpa derivatives containing pentadentate ligands: An acyclic adjuvant potentiates meropenem activity in vitro and in vivo against metallo-β-lactamase-producing Enterobacterales” (Eur J Med Chem, 2021):
Converted amounts (≈) assume the structure as drawn. The source made the active and inactive calls. The calls are words filed in the database; no cut-off is given here.

How the values were obtained:
Escherichia coli [1] = test: Antibacterial activity against MBL producing Escherichia coli isolates assessed as inhibition of bacterial growth at 64 ug/ml incubated for 16 to 20 hrs by CLSI based microdilution method; type: functional, organism-based; conditions: dose 64.0 µg/ml, time 16-20 hrs
Escherichia coli [2] = test: Antibiotic adjuvant activity against meropenem-treated VIM-1 producing Escherichia coli DH5 alpha assessed as inhibition of bacterial growth at 8 ug/ml incubated for 16 to 20 hrs in the presence of meropenem and 1 to 10 uM zinc sulfate by CLSI based microdilution method; type: functional, organism-based; conditions: dose 8.0 µg/ml, time 16-20 hrs
[3] = Acute toxicity in BALB/c mouse assessed as pathological changes in kidney at 50 mg/kg, ip administered as single dose measured after 24 hrs by hematoxylin and eosin staining based assay; type: organism-based; conditions: in vivo
Escherichia coli [4] = test: Antibacterial activity against IMP-4 producing Escherichia coli DH5 alpha assessed as bacterial growth at 8 ug/ml incubated for 16 to 20 hrs by CLSI based microdilution method; type: functional; conditions: dose 8 µg/ml; time 16-20 hrs
Klebsiella pneumoniae [5] = test: Antibacterial activity against NDM-producing carbapenem resistant Klebsiella pneumoniae infected in BALB/c mouse sepsis model assessed as dilated and congested central vein with neutrophil cell infiltration within the red pulp of the spleen at 10 mg/kg, ip observed for 2 days by HE staining based assay; type: functional, organism-based; conditions: time 2.0 day
Escherichia coli [6] = test: Antibiotic adjuvant activity against meropenem-treated NDM-1 producing Escherichia coli DH5 alpha assessed as inhibition of bacterial growth at 8 ug/ml incubated for 16 to 20 hrs in the presence of meropenem and 100 uM zinc sulfate by CLSI based microdilution method; type: functional, organism-based; conditions: dose 8.0 µg/ml, time 16-20 hrs
[7] = Acute toxicity in BALB/c mouse assessed as change in hemoglobin level at 50 mg/kg, ip administered as single dose measured after 24 hrs; type: organism-based; conditions: in vivo
Escherichia coli [8] = test: Antibiotic adjuvant activity against meropenem-treated NDM-1 producing Escherichia coli DH5 alpha assessed as inhibition of bacterial growth at 8 ug/ml incubated for 16 to 20 hrs in the presence of meropenem and 1 to 10 uM zinc sulfate by CLSI based microdilution method; type: functional, organism-based; conditions: dose 8.0 µg/ml, time 16-20 hrs
[9] = Zinc chelation-dependent inhibition of VIM-2 (unknown origin) expressed in Escherichia coli DH5 alpha using nitrocefin as substrate preincubated with enzyme for 5 mins followed by substrate addition in presence of zinc sulfate
Escherichia coli [10] = test: Antibiotic adjuvant activity against meropenem-treated NDM-1 producing Escherichia coli DH5 alpha assessed as bacterial growth at 8 ug/ml incubated for 16 to 20 hrs in the presence of meropenem by CLSI based microdilution method; type: functional; conditions: dose 8 µg/ml; time 16-20 hrs
[11] = Acute toxicity in BALB/c mouse assessed as change in albumin level in serum at 50 mg/kg, ip administered as single dose measured after 24 hrs; type: organism-based; conditions: in vivo
[12] = Non competitive inhibition of IMP-1 (unknown origin) assessed as inhibition of substrate hydrolysis by measuring decrease in Vmax using imipenem as substrate preincubated with enzyme for 5 mins followed by substrate addition by Lineweaver-Burk plot analysis
Klebsiella pneumoniae [13] = test: Antibacterial activity against MBL producing Klebsiella pneumoniae isolates assessed as inhibition of bacterial growth at 64 ug/ml incubated for 16 to 20 hrs by CLSI based microdilution method; type: functional, organism-based; conditions: dose 64.0 µg/ml, time 16-20 hrs
[14] = Non competitive inhibition of NDM-1 (unknown origin) assessed as inhibition of substrate hydrolysis by measuring decrease in Vmax using meropenem as substrate preincubated with enzyme for 5 mins followed by substrate addition by Lineweaver-Burk plot analysis
Escherichia coli [15] = test: Antibiotic adjuvant activity against NDM-1 producing Escherichia coli DH5alpha assessed as potentiation of meropenem-induced antibacterial activity incubated for 16 to 20 hrs by agar disc diffusion assay; type: functional, organism-based; conditions: DH5[alpha], time 16-20 hrs
[16] = Acute toxicity in BALB/c mouse assessed as pathological changes in spleen at 50 mg/kg, ip administered as single dose measured after 24 hrs by hematoxylin and eosin staining based assay; type: organism-based; conditions: in vivo
[17] = Acute toxicity in BALB/c mouse assessed as change in RBC count at 50 mg/kg, ip administered as single dose measured after 24 hrs; type: organism-based; conditions: in vivo
Klebsiella pneumoniae [18] = test: Antibiotic adjuvant activity against meropenem-treated NDM-producing carbapenem resistant Klebsiella pneumoniae infected in BALB/c mouse sepsis model assessed as reduction of bacterial load in kidney at 10 mg/kg, ip in the presence of meropenem observed for 2 days; type: functional, organism-based; conditions: time 2.0 day
Escherichia coli [19] = test: Antibacterial activity against NDM-1 producing Escherichia coli DH5 alpha assessed as bacterial growth at 8 ug/ml incubated for 16 to 20 hrs by CLSI based microdilution method; type: functional; conditions: dose 8 µg/ml; time 16-20 hrs
Escherichia coli [20] = test: Antibiotic adjuvant activity against meropenem-treated VIM-1 producing Escherichia coli DH5 alpha assessed as bacterial growth at 8 ug/ml incubated for 16 to 20 hrs in the presence of meropenem and 100 uM zinc sulfate by CLSI based microdilution method; type: functional; conditions: dose 8 µg/ml; time 16-20 hrs
[21] = Acute toxicity in BALB/cmouse assessed as change in hematocrit level at 50 mg/kg, ip administered as single dose measured after 24 hrs; type: organism-based, BALB/c; conditions: mouse, in vivo
Klebsiella pneumoniae [22] = test: Antibiotic adjuvant activity against meropenem-treated NDM-producing carbapenem resistant Klebsiella pneumoniae infected in BALB/c mouse sepsis model assessed as reduction in neutrophil infiltration in red pulp of spleen at 10 mg/kg, ip in the presence of meropenem observed for 2 days by HE staining based assay; type: functional, organism-based; conditions: time 2.0 day
[23] = Acute toxicity in BALB/c mouse assessed as pathological changes in liver at 50 mg/kg, ip administered as single dose measured after 24 hrs by hematoxylin and eosin staining based assay; type: organism-based; conditions: in vivo
Pseudomonas aeruginosa = test: Antibacterial activity against MBL producing Pseudomonas aeruginosa isolates assessed as inhibition of bacterial growth at 64 ug/ml incubated for 16 to 20 hrs by CLSI based microdilution method; type: functional, organism-based; conditions: dose 64.0 µg/ml, time 16-20 hrs
Escherichia coli [24] = test: Antibiotic adjuvant activity against IMP-4 producing Escherichia coli DH5alpha assessed as potentiation of meropenem-induced antibacterial activity incubated for 16 to 20 hrs by agar disc diffusion assay; type: functional, organism-based; conditions: DH5[alpha], time 16-20 hrs
[25] = Acute toxicity in BALB/c mouse assessed as change in creatinine level in serum at 50 mg/kg, ip administered as single dose measured after 24 hrs; type: organism-based; conditions: in vivo
Klebsiella pneumoniae [26] = test: Antibiotic adjuvant activity against meropenem-treated NDM-producing carbapenem resistant Klebsiella pneumoniae infected in BALB/c mouse sepsis model assessed as mouse rescue at 10 mg/kg, ip in the presence of meropenem measured after 48 hrs; type: functional
Escherichia coli [27] = test: Antibiotic adjuvant activity against meropenem-treated VIM-1 producing Escherichia coli DH5 alpha assessed as bacterial growth at 8 ug/ml incubated for 16 to 20 hrs in the presence of meropenem by CLSI based microdilution method; type: functional; conditions: dose 8 µg/ml; time 16-20 hrs
[28] = Zinc chelation-dependent inhibition of IMP-4 (unknown origin) expressed in Escherichia coli BL21 (DE3) using imipenem as substrate preincubated with enzyme for 5 to 10 mins followed by substrate addition
Escherichia coli [29] = test: Antibacterial activity against IMP-4 producing Escherichia coli DH5alpha assessed as decrease in bacterial growth incubated for 16 to 20 hrs by CLSI based microdilution method; type: functional; conditions: DH5[alpha], time 16-20 hrs
Escherichia coli [30] = test: Synergistic antibacterial activity against IMP-4 producing Escherichia coli DH5alpha assessed as fractional inhibitory concentration index incubated for 16 to 20 hrs in presence of meropenem by checkerboard assay; type: functional, DH5[alpha]; conditions: time 16-20 hrs
Escherichia coli [31] = test: Antibiotic adjuvant activity against VIM-1 producing Escherichia coli DH5alpha assessed as potentiation of meropenem-induced antibacterial activity incubated for 16 to 20 hrs by agar disc diffusion assay; type: functional, organism-based; conditions: DH5[alpha], time 16-20 hrs

SMILES	Activity (Escherichia coli [1])	Activity (Escherichia coli [2])	Activity [3]	Activity (Escherichia coli [4]) [%]	Activity (Klebsiella pneumoniae [5])	Activity (Escherichia coli [6])	Activity [7]	Activity (Escherichia coli [8])	Activity [9]	Activity (Escherichia coli [10]) [%]	Activity [11]	Ki [12] [nM]	Activity (Klebsiella pneumoniae [13])	Ki [14] [nM]	Activity (Escherichia coli [15])	Activity [16]	Activity [17]	Activity (Klebsiella pneumoniae [18])	Activity (Escherichia coli [19]) [%]	Activity (Escherichia coli [20]) [%]	further results
C[C@H](C(=O)O)N(Cc1cccc(C(=O)O)n1)Cc1cccc(C(=O)O)n1	inactive	Active	Non-Toxic	95	inactive	inactive	Non-Toxic	Active	inactive	<10	Non-Toxic	1570	inactive	1590	Active	Non-Toxic	Non-Toxic	Active	95	100	Activity [21]: Non-Toxic; Activity (Klebsiella pneumoniae [22]): Active; Activity [23]: Non-Toxic; Activity (Pseudomonas aeruginosa): inactive; Activity (Escherichia coli [24]): Active; Activity [25]: Non-Toxic; Activity (Klebsiella pneumoniae [26]): 83%; Activity (Escherichia coli [27]): <10%; IC50 [28]: 4.4 µM; MIC (Escherichia coli [29]): 128 µg/mL (≈ 356 µM); fractional inhibitory concentration index (FICI) (Escherichia coli [30]): 0.14; Activity (Escherichia coli [31]): Active
C[C@@H](C(=O)O)N(Cc1cccc(C(=O)O)n1)Cc1cccc(C(=O)O)n1	inactive	Active	Non-Toxic	95	inactive	inactive	Non-Toxic	Active	inactive	<10	Non-Toxic	1540	inactive	1700	Active	Non-Toxic	Non-Toxic	Active	95	100	Activity [21]: Non-Toxic; Activity (Klebsiella pneumoniae [22]): Active; Activity [23]: Non-Toxic; Activity (Pseudomonas aeruginosa): inactive; Activity (Escherichia coli [24]): Active; Activity [25]: Non-Toxic; Activity (Klebsiella pneumoniae [26]): 83%; Activity (Escherichia coli [27]): <10%; IC50 [28]: 4.17 µM; MIC (Escherichia coli [29]): 128 µg/mL (≈ 356 µM); fractional inhibitory concentration index (FICI) (Escherichia coli [30]): 0.14; Activity (Escherichia coli [31]): Active
